Laboratory results reported in paper PMC4965013, “Open Source Drug Discovery with the Malaria Box Compound Collection for Neglected Diseases and Beyond” (PLoS Pathogens, 2016).
Where two headings read alike, the source gives them in different places.

What was measured:
P. falciparum = assay: EC50 listed in S2 Table Metabolomics (used to set the concentration tested); format: cell-based; details: Plasmodium falciparum; EC50 used for Factor_XEC50 in metabolomics; read-out: EC50_nM
[1] = system: P. falciparum 3D7 trophozoites; assay: Metabolomic fingerprint profiling LC-MS; format: cell-based, Plasmodium falciparum; parameters: UDP-D-glucose / ADP-D-glucose: unit not given here; details: for Acetyllysine / N-acetyl-L-ornithine / N-carbamoyl-L-aspartate / NADPH / dAMP / dCMP / dTDP / dTMP / dTTP / dihydroorotate / orotate / DLH / DLS/SDL/SID / PD / PEE / PVNF / 3-phosphoglycerate / ADP-D-glucose / ATP / CDP / D-sedoheptulose-1/7-phosphate / FAD / GMP / NAD+ / NADP+ / Octoluse Bisphosphate / Pyroglutamic acid / UDP-D-glucose / UDP-D-glucuronate / UDP-N-acetyl-glucosamine / UDP / UMP / UTP / a-ketoglutarate / citrate/isocitrate / cytidine / dATP / dGMP/AMP / fumarate / glucose-1/6-phosphate / glycerate / guanine / guanosine / hypoxanthine / indole / inosine / nicotinate / ornithine / phosphoenolpyruvate / pyruvate / ribose-phosphate / sarcosine/alanine / sn-glycerol-3-phosphate / succinate/methylmalonic acid / uridine / xanthosine: S2 Table Metabolomics; for Acetyllysine: metabolite Acetyllysine; for N-acetyl-L-ornithine: metabolite N-acetyl-L-ornithine; for N-carbamoyl-L-aspartate: metabolite N-carbamoyl-L-aspartate; for NADPH: metabolite NADPH; for dAMP: metabolite dAMP; for dCMP: metabolite dCMP; for dTDP: metabolite dTDP; for dTMP: metabolite dTMP; for dTTP: metabolite dTTP; for dihydroorotate: metabolite dihydroorotate; for orotate: metabolite orotate; for DLH: peptide DLH; for DLS/SDL/SID: peptide DLS/SDL/SID; for PD: peptide PD; for PEE: peptide PEE; for PVNF: peptide PVNF; for 3-phosphoglycerate: metabolite 3-phosphoglycerate; for ADP-D-glucose: metabolite ADP-D-glucose; for ATP: metabolite ATP; for CDP: metabolite CDP; for CDP / D-sedoheptulose-1/7-phosphate / GMP / Octoluse Bisphosphate / UDP / UMP / UTP / citrate/isocitrate / dGMP/AMP / fumarate / glucose-1/6-phosphate / glycerate / guanine / guanosine / inosine / pyruvate / sarcosine/alanine / succinate/methylmalonic acid / uridine / xanthosine: change in metabolite level after compound treatment; for D-sedoheptulose-1/7-phosphate: metabolite D-sedoheptulose-1/7-phosphate; for FAD: metabolite FAD; for GMP: metabolite GMP; for NAD+: metabolite NAD+; for NADP+: metabolite NADP+; for Octoluse Bisphosphate: metabolite Octoluse Bisphosphate; for Pyroglutamic acid: metabolite Pyroglutamic acid; for UDP-D-glucose: metabolite UDP-D-glucose; for UDP-D-glucuronate: metabolite UDP-D-glucuronate; for UDP-N-acetyl-glucosamine: metabolite UDP-N-acetyl-glucosamine; for UDP: metabolite UDP; for UMP: metabolite UMP; for UTP: metabolite UTP; for a-ketoglutarate: metabolite a-ketoglutarate; for citrate/isocitrate: metabolite citrate/isocitrate; for cytidine: metabolite cytidine; for dATP: metabolite dATP; for dGMP/AMP: metabolite dGMP/AMP; for fumarate: metabolite fumarate; for glucose-1/6-phosphate: metabolite glucose-1/6-phosphate; for glycerate: metabolite glycerate; for guanine: metabolite guanine; for guanosine: metabolite guanosine; for hypoxanthine: metabolite hypoxanthine; for indole: metabolite indole; for inosine: metabolite inosine; for 2_3-Diphosphoglyceric acid / 4-phosphopantothenate / 6-phospho-D-gluconate / FMN / IMP / Pyrophosphate / Sedoheptoluse bisphosphate / cyclic-AMP / glutathione disulfide / lactate / myo-inositol: metabolite level change after treatment; for nicotinate: metabolite nicotinate; for ornithine: metabolite ornithine; for phosphoenolpyruvate: metabolite phosphoenolpyruvate; for pyruvate: metabolite pyruvate; for ribose-phosphate: metabolite ribose-phosphate; for sarcosine/alanine: metabolite sarcosine/alanine; for sn-glycerol-3-phosphate: metabolite sn-glycerol-3-phosphate; for succinate/methylmalonic acid: metabolite succinate/methylmalonic acid; for uridine: metabolite uridine; for xanthosine: metabolite xanthosine
P. falciparum 3D7 = assay: [3H]-hypoxanthine growth inhibition, modified HCO3- or O2; format: cell-based; details: for IC50: Plasmodium falciparum

Q: With `COc1ccc(-c2nc(NC(=O)CS(=O)(=O)c3ccc(F)cc3)sc2C)cc1` [MMV665915] as the compound, how does the EC50 (P. falciparum) read?
A: 0.448 µM

Q: And the Acetyllysine [1]?
A: -0.1771

Q: What about the N-acetyl-L-ornithine [1] of the same compound?
A: -0.3059

Q: And the N-carbamoyl-L-aspartate [1]?
A: 0.053

Q: And the NADPH [1]?
A: 0.1215

Q: What about the dAMP [1] of the same compound?
A: -0.4653

Q: And the dCMP [1]?
A: -0.2866

Q: And the dTDP [1]?
A: 0.07665

Q: And the dTMP [1]?
A: 0.08902

Q: What about the dTTP [1] of the same compound?
A: -0.1721

Q: What about the dihydroorotate [1] of the same compound?
A: -0.4672

Q: And the orotate [1]?
A: -0.4189

Q: What about the DLH [1] of the same compound?
A: 0.071

Q: What about the DLS/SDL/SID [1] of the same compound?
A: -0.2498

Q: What about the PD [1] of the same compound?
A: -0.3229

Q: And the PEE [1]?
A: -0.02112

Q: And the PVNF [1]?
A: 0.02436

Q: What about the 3-phosphoglycerate [1] of the same compound?
A: -0.875

Q: And the ADP-D-glucose [1]?
A: -0.2338

Q: And the ATP [1]?
A: -0.08026

Q: And the CDP [1]?
A: 0.2353

Q: And the D-sedoheptulose-1/7-phosphate [1]?
A: 0.2732

Q: And the FAD [1]?
A: -0.2366

Q: And the GMP [1]?
A: -0.6644

Q: And the “NAD+” value [1]?
A: -0.2604

Q: What about the “NADP+” value [1] of the same compound?
A: -0.1454

Q: And the “Octoluse Bisphosphate” value [1]?
A: -0.3427

Q: And the Pyroglutamic acid [1]?
A: 0.2622

Q: What about the UDP-D-glucose [1] of the same compound?
A: -0.2684

Q: What about the UDP-D-glucuronate [1] of the same compound?
A: -0.1851

Q: And the UDP-N-acetyl-glucosamine [1]?
A: -0.3241

Q: What about the UDP [1] of the same compound?
A: 0.1227

Q: And the UMP [1]?
A: -0.7313

Q: And the UTP [1]?
A: -0.06326

Q: What about the a-ketoglutarate [1] of the same compound?
A: -0.1843

Q: And the citrate/isocitrate [1]?
A: 0.1306

Q: What about the cytidine [1] of the same compound?
A: -0.25

Q: What about the dATP [1] of the same compound?
A: -0.1264

Q: And the dGMP/AMP [1]?
A: -0.5258

Q: And the fumarate [1]?
A: -0.3392

Q: And the glucose-1/6-phosphate [1]?
A: -0.6162

Q: What about the glycerate [1] of the same compound?
A: -0.5026

Q: What about the guanine [1] of the same compound?
A: -0.3726

Q: And the guanosine [1]?
A: -0.4353

Q: And the hypoxanthine [1]?
A: 0.151

Q: What about the indole [1] of the same compound?
A: 0.2601

Q: And the inosine [1]?
A: -0.1084

Q: What about the 2_3-Diphosphoglyceric acid [1] of the same compound?
A: -0.3692

Q: And the 4-phosphopantothenate [1]?
A: -0.3105

Q: And the 6-phospho-D-gluconate [1]?
A: -0.535

Q: And the FMN [1]?
A: -0.2195

Q: And the IMP [1]?
A: -0.3295

Q: What about the Pyrophosphate [1] of the same compound?
A: -0.0001746

Q: What about the Sedoheptoluse bisphosphate [1] of the same compound?
A: -0.2854

Q: And the cyclic-AMP [1]?
A: -0.3638

Q: And the glutathione disulfide [1]?
A: -0.4248

Q: What about the lactate [1] of the same compound?
A: -0.1885

Q: And the myo-inositol [1]?
A: -0.6665

Q: And the nicotinate [1]?
A: -0.4616

Q: And the ornithine [1]?
A: -0.3065

Q: What about the phosphoenolpyruvate [1] of the same compound?
A: -0.5464

Q: What about the pyruvate [1] of the same compound?
A: -0.3441

Q: And the ribose-phosphate [1]?
A: -0.3706

Q: And the sarcosine/alanine [1]?
A: -0.5111

Q: What about the sn-glycerol-3-phosphate [1] of the same compound?
A: -0.2801

Q: What about the succinate/methylmalonic acid [1] of the same compound?
A: -0.2666

Q: And the uridine [1]?
A: -0.2088

Q: What about the xanthosine [1] of the same compound?
A: -0.3176

Q: And the “fold change (IC50reduced/IC50normal)” value (P. falciparum 3D7)?
A: 2.4

Q: What about the IC50 (P. falciparum 3D7; 3D7, read-out: P. falciparum 3D7 IC50 HCO3- (2g/L), standard media) of the same compound?
A: 0.192 µM

Q: And the IC50 (P. falciparum 3D7; 3D7, HCO3- reduced media, read-out: P. falciparum 3D7 IC50 HCO3- reduced)?
A: 0.464 µM

Q: For `CCOC(=O)c1cn(CC)c2cc(N(C)CCc3ccc(OC)c(OC)c3)c(F)cc2c1=O` [MMV665977], which EC50 (P. falciparum) is on record?
A: 0.205 µM

Q: And the Acetyllysine [1]?
A: -0.2007

Q: And the N-acetyl-L-ornithine [1]?
A: 0.023

Q: And the N-carbamoyl-L-aspartate [1]?
A: 3.959

Q: What about the NADPH [1] of the same compound?
A: -0.01115

Q: And the dAMP [1]?
A: 0.7523

Q: And the dCMP [1]?
A: 0.5464

Q: And the dTDP [1]?
A: 0.1785

Q: And the dTMP [1]?
A: 0.2344

Q: What about the dTTP [1] of the same compound?
A: -0.3388

Q: What about the dihydroorotate [1] of the same compound?
A: 4.609

Q: What about the orotate [1] of the same compound?
A: -0.8094

Q: What about the DLH [1] of the same compound?
A: -0.4948

Q: And the DLS/SDL/SID [1]?
A: -0.3029

Q: And the PD [1]?
A: 0.1633

Q: What about the PEE [1] of the same compound?
A: -0.1468

Q: What about the PVNF [1] of the same compound?
A: -0.5192

Q: And the 3-phosphoglycerate [1]?
A: -0.3617

Q: What about the ADP-D-glucose [1] of the same compound?
A: 0.08874

Q: And the ATP [1]?
A: -0.1759

Q: And the CDP [1]?
A: 0.4208

Q: And the D-sedoheptulose-1/7-phosphate [1]?
A: 0.7585

Q: What about the FAD [1] of the same compound?
A: 0.2291

Q: And the GMP [1]?
A: -0.3238

Q: And the “NAD+” value [1]?
A: 0.1079

Q: What about the “NADP+” value [1] of the same compound?
A: 0.05477

Q: What about the “Octoluse Bisphosphate” value [1] of the same compound?
A: -0.07826

Q: And the Pyroglutamic acid [1]?
A: -0.2687

Q: What about the UDP-D-glucose [1] of the same compound?
A: 0.1563

Q: What about the UDP-D-glucuronate [1] of the same compound?
A: 0.07018

Q: What about the UDP-N-acetyl-glucosamine [1] of the same compound?
A: 0.07391

Q: And the UDP [1]?
A: 0.2133

Q: And the UMP [1]?
A: -0.8829

Q: And the UTP [1]?
A: -1.518

Q: What about the a-ketoglutarate [1] of the same compound?
A: -0.594

Q: What about the citrate/isocitrate [1] of the same compound?
A: -0.7044

Q: What about the cytidine [1] of the same compound?
A: 0.327

Q: What about the dATP [1] of the same compound?
A: 0.6974

Q: And the dGMP/AMP [1]?
A: -0.4295

Q: And the fumarate [1]?
A: 0.007291

Q: And the glucose-1/6-phosphate [1]?
A: 0.2816

Q: And the glycerate [1]?
A: -0.4808

Q: And the guanine [1]?
A: 0.3502

Q: And the guanosine [1]?
A: 0.225

Q: And the hypoxanthine [1]?
A: -0.2655

Q: What about the indole [1] of the same compound?
A: -0.1099

Q: What about the inosine [1] of the same compound?
A: 0.2015

Q: What about the 2_3-Diphosphoglyceric acid [1] of the same compound?
A: 0.344

Q: What about the 4-phosphopantothenate [1] of the same compound?
A: -0.03263

Q: What about the 6-phospho-D-gluconate [1] of the same compound?
A: 0.2163

Q: What about the FMN [1] of the same compound?
A: 0.1874

Q: What about the IMP [1] of the same compound?
A: 0.1512

Q: What about the Pyrophosphate [1] of the same compound?
A: 0.2053

Q: What about the Sedoheptoluse bisphosphate [1] of the same compound?
A: 0.01379

Q: What about the cyclic-AMP [1] of the same compound?
A: 0.02919

Q: And the glutathione disulfide [1]?
A: 0.2163

Q: And the lactate [1]?
A: -0.4098

Q: What about the myo-inositol [1] of the same compound?
A: -0.567

Q: And the nicotinate [1]?
A: -0.4053

Q: What about the ornithine [1] of the same compound?
A: 0.1382

Q: What about the phosphoenolpyruvate [1] of the same compound?
A: -0.3385

Q: And the pyruvate [1]?
A: -0.6681

Q: And the ribose-phosphate [1]?
A: -0.2449

Q: What about the sarcosine/alanine [1] of the same compound?
A: 0.1312

Q: And the sn-glycerol-3-phosphate [1]?
A: 0.2048

Q: And the succinate/methylmalonic acid [1]?
A: -0.4008

Q: What about the uridine [1] of the same compound?
A: -0.5319

Q: What about the xanthosine [1] of the same compound?
A: -0.3168

Q: What about the “fold change (IC50normal/ IC50hypoxia)” value (P. falciparum 3D7) of the same compound?
A: 4.1

Q: And the IC50 (P. falciparum 3D7; 3D7, read-out: P. falciparum 3D7 IC50 1% O2, 1% O2 hypoxia)?
A: 0.085 µM

Q: What about the IC50 (P. falciparum 3D7; 3D7, read-out: P. falciparum 3D7 IC50 5% O2) of the same compound?
A: 0.345 µM
